Experimental findings from PubChem BioAssay (NCI) are described below.

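Assay format: 96-well plates, 48-hour exposure. Here, GI50 denotes the concentration required for 50% inhibition of growth. Definition used: TGI = concentration required for complete inhibition of growth.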

Some test systems named below: K-562 leukemia; UO-31 renal; TK-10 renal; SF-268 CNS; 786-0 renal; SK-MEL-2 melanoma; NCI-H522 lung; MALME-3M melanoma; HS 578T breast; A498 renal.
Holding throughout (experiment): inhibition of tumour cell growth, NCI panel, 48 h

Consider `COc1ccc(-c2nc(C(=O)c3ccccc3)n(CC(=O)c3ccc(Cl)cc3)c2-c2ccc(OC)cc2)cc1`, for which the GI50 in the assay with K-562 leukemia, in the assay on UO-31 renal, in the assay on TK-10 renal, with SF-268 CNS, in the assay with 786-0 renal and in the assay on SK-MEL-2 melanoma was above 100 µM in each case. The GI50 in the assay with NCI-H522 lung, in the assay with MALME-3M melanoma, in the assay on HS 578T breast and in the assay with A498 renal was above 100 µM in each case. For the same molecule, the TGI in the assay with K-562 leukemia, in the assay with UO-31 renal, in the assay on TK-10 renal, in the assay with SF-268 CNS, in the assay with 786-0 renal and in the assay on SK-MEL-2 melanoma was above 100 µM each time. Also, the TGI in the assay on NCI-H522 lung, in the assay on MALME-3M melanoma, in the assay with HS 578T breast and with A498 renal was above 100 µM each time.
Turning to `Oc1ccc(Cl)cc1/C=N\NC(=S)N/N=C/c1cc(Cl)ccc1O`, the GI50 with K-562 leukemia is 2.63 µM; with UO-31 renal, 1.05 µM; with TK-10 renal, 2.68 µM; with SF-268 CNS, 1.72 µM; with 786-0 renal it was 1.43 µM; in the assay on SK-MEL-2 melanoma it was 1.87 µM. Moreover, the GI50 in the assay with NCI-H522 lung was 1.45 µM; with MALME-3M melanoma it was 2.14 µM; with HS 578T breast it was 8.37 µM; with A498 renal it was 2.36 µM. Besides, the TGI was above 100 µM in the assay with K-562 leukemia; 15.5 µM with UO-31 renal; 34.5 µM with TK-10 renal; above 100 µM with SF-268 CNS; 4.52 µM in the assay on 786-0 renal; 10.1 µM with SK-MEL-2 melanoma. Moreover, the TGI in the assay on NCI-H522 lung is 5.15 µM; in the assay with MALME-3M melanoma, 52.7 µM; with HS 578T breast it was above 100 µM; in the assay with A498 renal, 11.5 µM.
As for `CNC(c1ccncc1)C(NC)c1ccncc1` (stereo not given), the TGI in the assay with K-562 leukemia, in the assay on UO-31 renal, in the assay with TK-10 renal, with SF-268 CNS, in the assay with 786-0 renal and with SK-MEL-2 melanoma was above 100 µM in each case. The TGI in the assay on NCI-H522 lung, in the assay on MALME-3M melanoma, with HS 578T breast and in the assay on A498 renal was above 100 µM throughout.
Regarding `COc1cc(/C=N/NC(=O)c2ccccc2Nc2cccc(C(F)(F)F)c2)cc(OC)c1OC`, the GI50 in the assay with K-562 leukemia was 2.52 µM; in the assay on UO-31 renal, 6.11 µM; in the assay with TK-10 renal, 2.36 µM; with SF-268 CNS it was 2.05 µM; with 786-0 renal, 3.22 µM; with SK-MEL-2 melanoma it was 9.63 µM. Further, the GI50 in the assay on NCI-H522 lung was 6.1 µM; in the assay on MALME-3M melanoma it was 1.75 µM; with HS 578T breast, 0.971 µM; with A498 renal, 1.93 µM. Also, the TGI in the assay with K-562 leukemia is above 37.2 µM; with UO-31 renal, 21.5 µM; in the assay on TK-10 renal, 8.74 µM; in the assay with SF-268 CNS it was 7.99 µM; in the assay with 786-0 renal it was 11.6 µM; with SK-MEL-2 melanoma, 33.2 µM. Also, the TGI was determined as 24.6 µM with NCI-H522 lung, 8.45 µM in the assay with MALME-3M melanoma, 6.6 µM in the assay on HS 578T breast and 6.76 µM with A498 renal.
On to `CCCOC(=O)C1C2CCC(O2)C1C(=O)O` (stereo not given), for which the TGI in the assay on K-562 leukemia, in the assay on UO-31 renal, with TK-10 renal, with SF-268 CNS, with 786-0 renal and with SK-MEL-2 melanoma was above 100 µM in each case. The TGI in the assay with NCI-H522 lung, in the assay on MALME-3M melanoma, with HS 578T breast and in the assay with A498 renal was above 100 µM throughout.
Take `CN1CCN(c2ccc3nc(-c4ccc(OCCCCN5CCN(CCCCN6C(=O)c7cccc8cccc(c78)C6=O)CC5)cc4)[nH]c3c2)CC1`: the GI50 in the assay with K-562 leukemia is above 100 µM; in the assay with UO-31 renal it was 58.4 µM; with TK-10 renal it was 37.4 µM; with SF-268 CNS, above 100 µM; in the assay with 786-0 renal, above 100 µM; in the assay with SK-MEL-2 melanoma, 95.6 µM. The GI50 was 52.9 µM in the assay with NCI-H522 lung, 20.9 µM in the assay with MALME-3M melanoma, 3.39 µM in the assay with HS 578T breast and above 100 µM in the assay on A498 renal. In addition, the TGI in the assay on K-562 leukemia, with UO-31 renal, in the assay with TK-10 renal, in the assay on SF-268 CNS, in the assay on 786-0 renal and in the assay on SK-MEL-2 melanoma was above 100 µM throughout. For the same molecule, the TGI in the assay with NCI-H522 lung was above 100 µM; in the assay on MALME-3M melanoma it was 42.6 µM; with HS 578T breast it was above 100 µM; with A498 renal it was above 100 µM.
As to `COc1cccc2c1cc1c3c(cc4c(c32)OCO4)C(=O)N1`, the GI50 in the assay with K-562 leukemia was 8.89 µM; in the assay with UO-31 renal, 3.47 µM; with TK-10 renal, 2.27 µM; in the assay with SF-268 CNS, 6.07 µM; in the assay with 786-0 renal it was 7.15 µM; with SK-MEL-2 melanoma it was 16.5 µM. Also, the GI50 in the assay with NCI-H522 lung was 2.62 µM; in the assay on MALME-3M melanoma it was 6.5 µM; with HS 578T breast, 2.33 µM; with A498 renal, 0.0914 µM. Moreover, the TGI in the assay on K-562 leukemia is above 100 µM; in the assay on UO-31 renal it was 28.9 µM; with TK-10 renal, 6.27 µM; in the assay with SF-268 CNS, 96.3 µM; in the assay with 786-0 renal, 33.3 µM; with SK-MEL-2 melanoma, 44.2 µM. Besides, the TGI with NCI-H522 lung is 8.96 µM; in the assay on MALME-3M melanoma, above 100 µM; in the assay on HS 578T breast, 6.82 µM; in the assay with A498 renal it was 4 µM.
For `O=C(/C=C/c1ccco1)c1ccc(Nc2nc(Nc3ccc(F)cc3)nc(Nc3ccc(F)cc3)n2)cc1`, the GI50 was 10.8 µM in the assay with K-562 leukemia; 14.7 µM with UO-31 renal; 48.4 µM in the assay with TK-10 renal; 7.49 µM with SF-268 CNS; 48.8 µM in the assay with 786-0 renal; 39 µM in the assay on SK-MEL-2 melanoma. The GI50 is 21.4 µM in the assay with NCI-H522 lung, 43.7 µM with MALME-3M melanoma, 22.8 µM in the assay on HS 578T breast and 7.28 µM in the assay on A498 renal. Further, the TGI in the assay with K-562 leukemia was 46 µM; with UO-31 renal it was 37.2 µM; with TK-10 renal it was above 100 µM; in the assay with SF-268 CNS, 30.8 µM; in the assay with 786-0 renal, above 100 µM; with SK-MEL-2 melanoma, above 100 µM. The TGI with NCI-H522 lung is 74.6 µM; in the assay on MALME-3M melanoma, above 100 µM; with HS 578T breast, 65 µM; in the assay with A498 renal it was above 100 µM.
